Biological target: T1, PPIP5K2^1-366 (human PPIP5K2 kinase domain) (Homo sapiens, UniProt O43314)
T1 construct: one comprised residues 1–366; made in house
T1 sequence (O43314 1-366): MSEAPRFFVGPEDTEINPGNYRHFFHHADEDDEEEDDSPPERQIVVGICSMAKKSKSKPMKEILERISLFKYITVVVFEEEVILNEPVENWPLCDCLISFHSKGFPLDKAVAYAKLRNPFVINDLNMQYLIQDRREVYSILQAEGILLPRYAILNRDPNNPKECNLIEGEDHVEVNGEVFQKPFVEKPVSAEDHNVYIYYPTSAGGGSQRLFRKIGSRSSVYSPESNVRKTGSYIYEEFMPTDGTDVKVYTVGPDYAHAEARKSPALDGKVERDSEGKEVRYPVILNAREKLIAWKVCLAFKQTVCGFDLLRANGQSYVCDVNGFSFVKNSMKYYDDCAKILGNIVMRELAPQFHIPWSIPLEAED
Test: PPIP5K2KD reverse kinase assay (ATP formation from ADP and 1,5(PP)2-IP4)
Format: biochemical
Conditions: 25 °C, 30 min, 0.1 mM ADP, 100 nM [1,5]PP-IP4, ATP production measured; this work; read-out: IC50, inhibition of the reverse kinase activity of PPIP5K2^1-366
Procedure: An alternative method to study the interaction of PP-IP5 analogs with PPIP5K2^KD is to derive IC50 values for inhibition of a “reverse-kinase” assay that records ATP formation when the enzyme is incubated with ADP and 1,5(PP)2-IP4.[29, 31] This approach avoids the need to use radiolabeled material and HPLC analysis. Moreover, the assay of ATP production is inherently more sensitive compared to measuring ATP consumption. […] In addition to the catalytic pocket, the PPIP5K2 kinase reaction cycle also utilizes a surface-mounted substrate capture site; the latter was initially identified through its binding of 5PA-IP5.[31] […] In this case, the higher affinity of the capture site for less polar molecules may explain why 5PA-IP5 is the only analog so far detected in this site.
For the reverse kinase assay, PPIP5K2^1-366 (2.5 μg mL^-1) was incubated at 25 °C for 30 min with 20 μL buffer containing 20 mM Tris-HCl, pH 7.5, 10 mM MgCl2, 0.1 mM ADP, 100 nM [1,5]PP-IP4 and various concentrations of either 5PCP-IP5 or 5PCF2P-IP5. The generated ATP was measured using a Molecular Probes ATP Determination kit (Thermo Fisher Scientific catalog number A22066). The IC50 value was calculated using GraphPad Prism. […]
Diffraction data were collected using APS beamlines 22 -ID. […] The structure was determined using rigid body and direct Fourier synthesis, and refined with t he equivalent and expanded test sets. […]

Row | IC50 | SMILES
1 | 583 nM | O=P(O)(O)O[C@H]1[C@@H](OP(=O)(O)O)[C@H](OP(=O)(O)O)[C@@H](OP(=O)(O)C(F)(F)P(=O)(O)O)[C@H](OP(=O)(O)O)[C@H]1OP(=O)(O)O [5PCF2P-IP5]
2 | 223 nM | O=P(O)(O)CP(=O)(O)O[C@H]1[C@H](OP(=O)(O)O)[C@@H](OP(=O)(O)O)[C@@H](OP(=O)(O)O)[C@@H](OP(=O)(O)O)[C@@H]1OP(=O)(O)O [5PCP-IP5]

Reference: paper PMC7615343, “Fluorination Influences the Bioisostery of Myo-Inositol Pyrophosphate Analogs” (Chemistry (Weinheim an der Bergstrasse, Germany), 2023)
